{"source": "patent US20260376293A1", "about": "“METHODS FOR STUDYING GPR158 PHARMACOLOGY AND IDENTIFICATION OF ITS LIGANDS” (UNIVERSITY OF FLORIDA RESEARCH FOUNDATION, INCORPORATED, priority 2022, published 2026)", "target": "T1, GPR158 E271A mutant (Homo sapiens, UniProt Q5T848, E271A)", "T1 construct": "glycine site in Cache domain", "T1 sequence (Q5T848 24-1215 E271A)": "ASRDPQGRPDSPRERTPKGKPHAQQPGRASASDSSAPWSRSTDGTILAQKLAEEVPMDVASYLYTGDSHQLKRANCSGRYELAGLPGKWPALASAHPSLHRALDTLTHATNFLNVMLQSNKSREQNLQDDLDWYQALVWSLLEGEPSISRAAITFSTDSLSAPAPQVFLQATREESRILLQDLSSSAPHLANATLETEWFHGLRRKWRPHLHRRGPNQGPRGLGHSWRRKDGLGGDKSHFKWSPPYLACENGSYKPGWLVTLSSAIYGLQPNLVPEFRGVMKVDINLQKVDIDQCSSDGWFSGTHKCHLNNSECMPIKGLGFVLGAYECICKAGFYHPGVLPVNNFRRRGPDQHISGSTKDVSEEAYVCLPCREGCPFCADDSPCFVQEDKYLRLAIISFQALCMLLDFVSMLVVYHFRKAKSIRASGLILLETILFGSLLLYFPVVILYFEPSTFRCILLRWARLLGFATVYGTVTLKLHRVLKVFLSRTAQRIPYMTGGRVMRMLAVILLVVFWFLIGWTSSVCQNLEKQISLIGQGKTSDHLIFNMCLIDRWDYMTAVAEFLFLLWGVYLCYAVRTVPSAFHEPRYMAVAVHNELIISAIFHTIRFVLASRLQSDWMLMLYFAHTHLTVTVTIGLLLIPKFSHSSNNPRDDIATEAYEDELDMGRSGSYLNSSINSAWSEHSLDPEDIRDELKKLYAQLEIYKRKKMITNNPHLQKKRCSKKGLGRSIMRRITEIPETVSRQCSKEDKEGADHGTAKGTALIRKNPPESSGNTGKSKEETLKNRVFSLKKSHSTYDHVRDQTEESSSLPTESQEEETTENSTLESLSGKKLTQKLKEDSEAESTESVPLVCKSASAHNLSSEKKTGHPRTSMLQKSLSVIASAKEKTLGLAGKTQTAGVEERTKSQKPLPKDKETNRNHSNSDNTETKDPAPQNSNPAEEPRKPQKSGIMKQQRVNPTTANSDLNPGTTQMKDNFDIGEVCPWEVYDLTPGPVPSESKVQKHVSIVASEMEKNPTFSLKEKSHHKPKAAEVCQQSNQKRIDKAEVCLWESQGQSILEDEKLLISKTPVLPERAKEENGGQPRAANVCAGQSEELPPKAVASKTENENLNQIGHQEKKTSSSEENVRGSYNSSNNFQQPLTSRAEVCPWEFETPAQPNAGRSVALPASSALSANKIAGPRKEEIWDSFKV", "experiment": "Radioligand binding assay on GPR158 mutant E271A", "text": "FIGS. 11A-11G. Probing Cache domain of GPR158 as a ligand binding site A) Computational docking of glycine into putative ligand binding pocket on GPR158 Cache domain. Glycine and directly interacting residues are shown as sticks. Hydrogen bonds and van der Waals interactions are shown as dotted lines. B) Diagram showing interactions in the docked model of glycine against GPR158 Cache domain. Hydrogen bonds are shown as dashed lines, van der Waals interactions are shown as intersecting semicircles, and the secondary structural context of Ser266 and Tyr269 is shown as an arc. Dagger indicates a residue implicated in glycine binding in 11A. C) Radioligand binding assay of ^3H-glycine in cells expressing GPR158 mutants. Data shown mean±s.e.m. of 3 independent experiments, *p<0.05, ns=p>0.05 one-way ANOVA. D) Functional evaluation of GPR158 mutants in GAP BRET assay. Error bars are mean±s.e.m. of 3 independent experiments in triplicate. *p<0.05, **p<0.01, ***p<0.001, ****p<0.0001, ns=p>0.05, two-way ANOVA Columns with no fill (Ctrl), columns with angled-line fill (Glycine) E) Quantification of glycine inhibitory effect on kGAP normalized to the effect seen with WT receptor. […]\nWhole cell binding was performed using cDNA of GPR158-venus or each GPR158-venus mutant or empty pcDNA3.1+ for ctrl cells. […] Finally radioactivity was measured using the liquid scintillation analyzer Tri-Carb 4910 TR.", "data": [{"molecule": "NCC(=O)O", "note": "[^3H-glycine, [^3H]-glycine]", "values": [{"measurement": "[^3H]-glycine binding", "value": "near complete loss"}]}]}
